Reference: patent US8084486B2, “Substituted arylpyrazoles” (Pfizer Limited, priority 2003, dated 2011)

System: Ctenocephalides felis
Test: flea membrane feed screen
Parameters: species or system Ctenocephalides felis (cat flea)
Conditions: at 30 μg/ml
Protocol: The flea membrane feed screen is used to measure the biological activities of the compounds claimed. The assay involves in vitro testing against Ctenocephalides felis conducted according to the following general procedure.
Fleas are cultured in vitro using dog blood. 25-30 adult Ctenocephalides felis (cat flea) were collected and placed in a test chamber (50 ml polystyrene tube with fine nylon mesh sealing the end). Citrated dog blood was prepared by adding aqueous sodium citrate solution (10 ml, 20% w/v, 20 g sodium citrate in 100 ml water) to dog blood (250 ml). Test compounds were dissolved in dimethylsulfoxide to give a working stock solution of 4 mg/ml. The stock solution (12.5 μl) was added to citrated dog blood (5 ml) to give an initial test concentration of 10 μg/ml. For testing at 30 μg/ml, working stock solutions of 12 mg/ml were prepared.
Citrated dog blood containing the test compound (5 ml, 10 μg/ml) was placed into a plastic petri dish lid, which was kept at 37° C. on a heated pad. Parafilm was stretched over the open top to form a tight membrane for the fleas to feed through. The test chamber containing the fleas was placed carefully onto the parafilm membrane and the fleas commenced feeding. […]
The fleas were observed and the percentage of fleas killed recorded. […]

SMILES: N#Cc1nn(-c2c(Cl)cc(C(F)(F)F)cc2Cl)c(N)c1C1CC1(Br)Br (stereo not shown) [5-amino-3-cyano-4-(2,2-dibromocyclopropyl)-1-(2,6-dichlorophenyl-4-trifluoromethyl-)pyrazole]
- activity in the ED80 flea screen: inactive
